{"source": "patent US10681909B2", "about": "“Herbicidal triazoles” (FMC Corporation, priority 2014, dated 2020)", "key": {"[1]": {"test_system": "barnyardgrass", "experiment": "Test A preemergence", "type": "in vivo, Echinochloa crus-galli", "settings": "Echinochloa crus-galli, pre-emergence, 240 h, 0 to 100 scale (0 no effect, 100 complete control), read-out: Plant response rating, Barnyardgrass", "in_short": "(§1)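 For preemergence, seeds were sown in a loam soil-sand blend and given a directed soil spray of test chemical in a non-phytotoxic solvent mixture with surfactant. For postemergence, plants in pots of the same blend were sprayed with the same formulation at the one- to two-leaf stage, 2 to 10 cm tall.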"}, "[2]": {"test_system": "corn", "experiment": "Test C postemergence", "type": "in vivo, Zea mays", "in_short": "(§2)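 Preemergence: seeds sown in loam soil–sand blend and treated with test chemicals formulated in a non-phytotoxic solvent mixture containing a surfactant. Postemergence: plants grown in peat moss/vermiculite-based medium and sprayed with the same formulation at 2 to 18 cm height (1- to 4-leaf stage).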"}, "[3]": {"test_system": "galium", "experiment": "Test C postemergence", "type": "in vivo, Galium aparine", "in_short": "as §2"}, "[4]": {"test_system": "crabgrass, large", "experiment": "Test C postemergence", "type": "in vivo, Digitaria sanguinalis", "in_short": "as §2"}, "[5]": {"test_system": "lambsquarters", "experiment": "Test C postemergence", "type": "in vivo, Chenopodium album", "in_short": "as §2"}, "[6]": {"test_system": "foxtail, giant", "experiment": "Test A preemergence", "type": "in vivo, Setaria faberii", "settings": "Setaria faberi, pre-emergence, 240 h, 0 to 100 scale (0 no effect, 100 complete control), read-out: Plant response rating, Foxtail, Giant", "in_short": "as §1"}, "[7]": {"test_system": "pigweed", "experiment": "Test A postemergence", "type": "in vivo, Amaranthus retroflexus", "settings": "Amaranthus retroflexus, post-emergence, 240 h, 0 to 100 scale (0 no effect, 100 complete control), approx. 10 d, read-out: Plant response rating, Pigweed", "in_short": "as §1"}, "[8]": {"test_system": "soybean", "experiment": "Test C postemergence", "type": "in vivo, Glycine max", "in_short": "as §2"}, "[9]": {"test_system": "wheat", "experiment": "Test A postemergence", "type": "in vivo, Triticum aestivum", "settings": "Triticum aestivum, post-emergence, 240 h, 0 to 100 scale (0 no effect, 100 complete control), approx. 10 d, read-out: Plant response rating, Wheat", "in_short": "as §1"}, "[10]": {"test_system": "waterhemp", "experiment": "Test C postemergence", "type": "in vivo, Amaranthus rudis", "in_short": "as §2"}, "[11]": {"test_system": "morningglory", "experiment": "Test C postemergence", "type": "in vivo, Ipomoea coccinea", "in_short": "as §2"}, "[12]": {"test_system": "barnyardgrass", "experiment": "Test B flooded paddy test", "type": "in vivo, Echinochloa crus-galli", "settings": "Echinochloa crus-galli, 360 h, 125 g ai/ha, applied to paddy water at 2-leaf stage, visual rating after 13 to 15 d, scale 0 (no effect) to 100 (complete control), read-out: Plant response rating, Barnyardgrass, Flood", "in_short": "(§3)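 Pots were flooded to 3 cm above the soil at treatment, and compounds were applied directly into the paddy water. That depth was held throughout. After 13 to 15 d in a greenhouse, plants were rated visually against untreated controls.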"}, "[13]": {"test_system": "barnyardgrass", "experiment": "Test C preemergence", "type": "in vivo, Echinochloa crus-galli", "settings": "for Plant response rating (scale of 0 to 100 where 0 is no effect and 100 is complete control): Barnyardgrass, preemergence; for Barnyardgrass plant response rating (0 to 100): Preemergence, visual rating after 13 to 15 d", "in_short": "as §2"}, "[14]": {"test_system": "sedge, umbrella", "experiment": "Test B flooded paddy test", "type": "in vivo, Cyperus difformis", "settings": "Cyperus difformis, 360 h, 125 g ai/ha, applied to paddy water at 2-leaf stage, visual rating after 13 to 15 d, scale 0 (no effect) to 100 (complete control), read-out: Plant response rating, Sedge, Umbrella, Flood", "in_short": "as §3"}}}
{"smiles": "CCOc1nc(-c2ccc(F)cc2)nn1Cc1ccnc(C(F)(F)F)c1", "note": "[Compound 8, 4-[[5-ethoxy-3-(4-fluorophenyl)-1H-1,2,4-triazol-1-yl]methyl]-2-(trifluoromethyl)pyridine]", "values": [{"measurement": "pest or weed control at 125 g/ha", "setting": "[1]; 125 g ai/ha", "result": 100, "unit": "%"}, {"measurement": "pest or weed control at 500 g/ha", "setting": "[1]; 500 g ai/ha, approx. 10 d", "result": 100, "unit": "%"}, {"measurement": "Plant response rating (scale of 0 to 100 where 0 is no effect and 100 is complete control)", "setting": "[2]; 31 g ai/ha", "result": 10}, {"measurement": "Plant response rating (scale of 0 to 100 where 0 is no effect and 100 is complete control)", "setting": "[2]; 62 g ai/ha", "result": 15}, {"measurement": "Plant response rating (scale of 0 to 100 where 0 is no effect and 100 is complete control)", "setting": "[2]; 125 g ai/ha", "result": 25}, {"measurement": "Plant response rating (scale of 0 to 100 where 0 is no effect and 100 is complete control)", "setting": "[2]; 250 g ai/ha", "result": 40}, {"measurement": "Plant response rating (scale of 0 to 100 where 0 is no effect and 100 is complete control)", "setting": "[3]; 31 g ai/ha", "result": 80}, {"measurement": "Plant response rating (scale of 0 to 100 where 0 is no effect and 100 is complete control)", "setting": "[3]; 62 g ai/ha", "result": 95}, {"measurement": "Plant response rating (scale of 0 to 100 where 0 is no effect and 100 is complete control)", "setting": "[3]; 125 g ai/ha", "result": 95}, {"measurement": "Plant response rating (scale of 0 to 100 where 0 is no effect and 100 is complete control)", "setting": "[3]; 250 g ai/ha", "result": 95}, {"measurement": "Plant response rating (scale of 0 to 100 where 0 is no effect and 100 is complete control)", "setting": "[4]; 31 g ai/ha", "result": 20}, {"measurement": "Plant response rating (scale of 0 to 100 where 0 is no effect and 100 is complete control)", "setting": "[4]; 62 g ai/ha", "result": 35}, {"measurement": "Plant response rating (scale of 0 to 100 where 0 is no effect and 100 is complete control)", "setting": "[4]; 125 g ai/ha", "result": 70}, {"measurement": "Plant response rating (scale of 0 to 100 where 0 is no effect and 100 is complete control)", "setting": "[4]; 250 g ai/ha", "result": 85}, {"measurement": "Plant response rating (scale of 0 to 100 where 0 is no effect and 100 is complete control)", "setting": "[5]; 31 g ai/ha", "result": 95}, {"measurement": "Plant response rating (scale of 0 to 100 where 0 is no effect and 100 is complete control)", "setting": "[5]; 62 g ai/ha", "result": 98}, {"measurement": "Plant response rating (scale of 0 to 100 where 0 is no effect and 100 is complete control)", "setting": "[5]; 125 g ai/ha", "result": 95}, {"measurement": "Plant response rating (scale of 0 to 100 where 0 is no effect and 100 is complete control)", "setting": "[5]; 250 g ai/ha", "result": 98}, {"measurement": "pest or weed control at 125 g/ha", "setting": "[6]; 125 g ai/ha", "result": 100, "unit": "%"}, {"measurement": "pest or weed control at 500 g/ha", "setting": "[6]; 500 g ai/ha, approx. 10 d", "result": 100, "unit": "%"}, {"measurement": "pest or weed control at 125 g/ha", "setting": "[7]; 125 g ai/ha", "result": 100, "unit": "%"}, {"measurement": "pest or weed control at 500 g/ha", "setting": "[7]; 500 g ai/ha", "result": 100, "unit": "%"}, {"measurement": "Plant response rating (scale of 0 to 100 where 0 is no effect and 100 is complete control)", "setting": "[8]; 31 g ai/ha", "result": 65}, {"measurement": "Plant response rating (scale of 0 to 100 where 0 is no effect and 100 is complete control)", "setting": "[8]; 62 g ai/ha", "result": 75}, {"measurement": "Plant response rating (scale of 0 to 100 where 0 is no effect and 100 is complete control)", "setting": "[8]; 125 g ai/ha", "result": 95}, {"measurement": "Plant response rating (scale of 0 to 100 where 0 is no effect and 100 is complete control)", "setting": "[8]; 250 g ai/ha", "result": 85}, {"measurement": "plant injury at 125 g/ha", "setting": "[9]; 125 g ai/ha", "result": 40, "unit": "%"}, {"measurement": "plant injury at 500 g/ha", "setting": "[9]; 500 g ai/ha", "result": 100, "unit": "%"}, {"measurement": "Plant response rating (scale of 0 to 100 where 0 is no effect and 100 is complete control)", "setting": "[10]; 31 g ai/ha", "result": 95}, {"measurement": "Plant response rating (scale of 0 to 100 where 0 is no effect and 100 is complete control)", "setting": "[10]; 62 g ai/ha", "result": 98}, {"measurement": "Plant response rating (scale of 0 to 100 where 0 is no effect and 100 is complete control)", "setting": "[10]; 125 g ai/ha", "result": 95}, {"measurement": "Plant response rating (scale of 0 to 100 where 0 is no effect and 100 is complete control)", "setting": "[10]; 250 g ai/ha", "result": 98}, {"measurement": "Plant response rating (scale of 0 to 100 where 0 is no effect and 100 is complete control)", "setting": "[11]; 31 g ai/ha", "result": 85}, {"measurement": "Plant response rating (scale of 0 to 100 where 0 is no effect and 100 is complete control)", "setting": "[11]; 62 g ai/ha", "result": 98}, {"measurement": "Plant response rating (scale of 0 to 100 where 0 is no effect and 100 is complete control)", "setting": "[11]; 125 g ai/ha", "result": 80}, {"measurement": "Plant response rating (scale of 0 to 100 where 0 is no effect and 100 is complete control)", "setting": "[11]; 250 g ai/ha", "result": 100}, {"measurement": "pest or weed control at 125 g/ha", "setting": "[12]", "result": 50, "unit": "%"}, {"measurement": "Plant response rating (scale of 0 to 100 where 0 is no effect and 100 is complete control)", "setting": "[13]; 125 g ai/ha", "result": 100}, {"measurement": "Plant response rating (scale of 0 to 100 where 0 is no effect and 100 is complete control)", "setting": "[13]; 250 g ai/ha", "result": 100}, {"measurement": "Barnyardgrass plant response rating (0 to 100)", "setting": "[13]; 31 g ai/ha", "result": 98}, {"measurement": "Barnyardgrass plant response rating (0 to 100)", "setting": "[13]; 62 g ai/ha", "result": 100}, {"measurement": "pest or weed control at 125 g/ha", "setting": "[14]", "result": 90, "unit": "%"}]}
